According to the NIST ThermoML archive (doi:10.1016/j.jct.2004.06.009):
Numbers after ± are expanded uncertainties.

Assay: molar heat capacity at constant pressure
Settings: 101.33 kPa, Crystal

With CCC12CC3CC(CC(C3)C1)C2 [1-ethyladamantane] the “molar heat capacity at constant pressure” value (8.03 K) was 1.395 ± 0.087 J/K/mol, the “molar heat capacity at constant pressure” value (8.87 K) was 1.961 ± 0.1 J/K/mol and the “molar heat capacity at constant pressure” value (9.72 K) was 2.621 ± 0.12 J/K/mol. The “molar heat capacity at constant pressure” value (10.57 K) was 3.39 ± 0.14 J/K/mol, the “molar heat capacity at constant pressure” value (11.44 K) was 4.278 ± 0.17 J/K/mol and the “molar heat capacity at constant pressure” value (12.32 K) was 5.225 ± 0.19 J/K/mol. For the same compound, the “molar heat capacity at constant pressure” value (13.21 K) was 6.255 ± 0.22 J/K/mol, the “molar heat capacity at constant pressure” value (14.1 K) was 7.376 ± 0.24 J/K/mol and the “molar heat capacity at constant pressure” value (14.99 K) was 8.556 ± 0.27 J/K/mol. The “molar heat capacity at constant pressure” value (15.9 K) was 9.727 ± 0.29 J/K/mol, the “molar heat capacity at constant pressure” value (16.8 K) was 10.96 ± 0.32 J/K/mol and the “molar heat capacity at constant pressure” value (17.71 K) was 12.22 ± 0.34 J/K/mol. For the same compound, the “molar heat capacity at constant pressure” value (18.62 K) was 13.48 ± 0.36 J/K/mol, the “molar heat capacity at constant pressure” value (19.54 K) was 14.72 ± 0.38 J/K/mol and the “molar heat capacity at constant pressure” value (20.54 K) was 16.13 ± 0.4 J/K/mol. The “molar heat capacity at constant pressure” value (21.56 K) was 17.52 ± 0.41 J/K/mol, the “molar heat capacity at constant pressure” value (22.59 K) was 18.89 ± 0.42 J/K/mol and the “molar heat capacity at constant pressure” value (23.61 K) was 20.32 ± 0.43 J/K/mol. For the same compound, the “molar heat capacity at constant pressure” value (24.63 K) was 21.67 ± 0.44 J/K/mol, the “molar heat capacity at constant pressure” value (26.68 K) was 24.2 ± 0.44 J/K/mol and the “molar heat capacity at constant pressure” value (27.71 K) was 25.4 ± 0.44 J/K/mol. For the same compound, the “molar heat capacity at constant pressure” value (28.74 K) was 26.62 ± 0.43 J/K/mol, the “molar heat capacity at constant pressure” value (29.76 K) was 27.84 ± 0.42 J/K/mol and the “molar heat capacity at constant pressure” value (30.79 K) was 29.12 ± 0.39 J/K/mol. For the same compound, the “molar heat capacity at constant pressure” value (32.85 K) was 31.29 ± 0.41 J/K/mol, the “molar heat capacity at constant pressure” value (33.87 K) was 32.44 ± 0.42 J/K/mol and the “molar heat capacity at constant pressure” value (34.9 K) was 33.5 ± 0.43 J/K/mol. The “molar heat capacity at constant pressure” value (35.93 K) was 34.39 ± 0.44 J/K/mol, the “molar heat capacity at constant pressure” value (37.98 K) was 36.32 ± 0.45 J/K/mol and the “molar heat capacity at constant pressure” value (39.01 K) was 37.21 ± 0.46 J/K/mol. For the same compound, the “molar heat capacity at constant pressure” value (40.03 K) was 38.15 ± 0.47 J/K/mol, the “molar heat capacity at constant pressure” value (41.06 K) was 39 ± 0.47 J/K/mol and the “molar heat capacity at constant pressure” value (42.08 K) was 39.94 ± 0.48 J/K/mol. For the same compound, the “molar heat capacity at constant pressure” value (43.1 K) was 40.64 ± 0.48 J/K/mol, the “molar heat capacity at constant pressure” value (44.12 K) was 41.41 ± 0.49 J/K/mol and the “molar heat capacity at constant pressure” value (45.14 K) was 42.16 ± 0.5 J/K/mol. For the same compound, the “molar heat capacity at constant pressure” value (46.16 K) was 42.91 ± 0.5 J/K/mol, the “molar heat capacity at constant pressure” value (47.18 K) was 43.59 ± 0.51 J/K/mol and the “molar heat capacity at constant pressure” value (48.2 K) was 44.12 ± 0.51 J/K/mol. For the same compound, the “molar heat capacity at constant pressure” value (49.22 K) was 44.8 ± 0.52 J/K/mol, the “molar heat capacity at constant pressure” value (50.23 K) was 45.53 ± 0.52 J/K/mol and the “molar heat capacity at constant pressure” value (51.25 K) was 46 ± 0.53 J/K/mol. For the same compound, the “molar heat capacity at constant pressure” value (52.26 K) was 46.77 ± 0.53 J/K/mol, the “molar heat capacity at constant pressure” value (53.27 K) was 47.66 ± 0.54 J/K/mol and the “molar heat capacity at constant pressure” value (54.29 K) was 48.36 ± 0.55 J/K/mol. The “molar heat capacity at constant pressure” value (55.3 K) was 49.16 ± 0.55 J/K/mol, the “molar heat capacity at constant pressure” value (56.32 K) was 50.02 ± 0.56 J/K/mol and the “molar heat capacity at constant pressure” value (57.33 K) was 50.66 ± 0.56 J/K/mol. For the same compound, the “molar heat capacity at constant pressure” value (60.8 K) was 53.31 ± 0.59 J/K/mol, the “molar heat capacity at constant pressure” value (62.77 K) was 54.44 ± 0.6 J/K/mol and the “molar heat capacity at constant pressure” value (64.71 K) was 55.94 ± 0.61 J/K/mol. For the same compound, the “molar heat capacity at constant pressure” value (65.75 K) was 56.4 ± 0.61 J/K/mol, the “molar heat capacity at constant pressure” value (66.79 K) was 57.48 ± 0.62 J/K/mol and the “molar heat capacity at constant pressure” value (67.84 K) was 57.62 ± 0.62 J/K/mol. The “molar heat capacity at constant pressure” value (68.88 K) was 58.33 ± 0.63 J/K/mol, the “molar heat capacity at constant pressure” value (69.92 K) was 59.01 ± 0.63 J/K/mol and the “molar heat capacity at constant pressure” value (70.96 K) was 59.56 ± 0.64 J/K/mol. The “molar heat capacity at constant pressure” value (72 K) was 60.08 ± 0.64 J/K/mol, the “molar heat capacity at constant pressure” value (73.04 K) was 60.85 ± 0.65 J/K/mol and the “molar heat capacity at constant pressure” value (74.08 K) was 61.29 ± 0.65 J/K/mol. The “molar heat capacity at constant pressure” value (75.11 K) was 62.33 ± 0.66 J/K/mol, the “molar heat capacity at constant pressure” value (76.15 K) was 62.98 ± 0.66 J/K/mol and the “molar heat capacity at constant pressure” value (77.19 K) was 63.42 ± 0.67 J/K/mol. For the same compound, the “molar heat capacity at constant pressure” value (78.22 K) was 64.33 ± 0.68 J/K/mol, the “molar heat capacity at constant pressure” value (79.25 K) was 64.56 ± 0.68 J/K/mol and the “molar heat capacity at constant pressure” value (80.28 K) was 65.4 ± 0.68 J/K/mol. For the same compound, the “molar heat capacity at constant pressure” value (81.31 K) was 66.12 ± 0.69 J/K/mol, the “molar heat capacity at constant pressure” value (81.85 K) was 65.93 ± 0.69 J/K/mol and the “molar heat capacity at constant pressure” value (82.34 K) was 66.67 ± 0.69 J/K/mol.
